# According to ChEMBL document CHEMBL3879900, “aSMase inhibitors” (2012):
# The source made the active and inactive calls. The rule behind the calls is not given here.
# Molecular target: T1, Sphingomyelin phosphodiesterase (Homo sapiens) (UniProt P17405)
# T1 sequence (whole entry): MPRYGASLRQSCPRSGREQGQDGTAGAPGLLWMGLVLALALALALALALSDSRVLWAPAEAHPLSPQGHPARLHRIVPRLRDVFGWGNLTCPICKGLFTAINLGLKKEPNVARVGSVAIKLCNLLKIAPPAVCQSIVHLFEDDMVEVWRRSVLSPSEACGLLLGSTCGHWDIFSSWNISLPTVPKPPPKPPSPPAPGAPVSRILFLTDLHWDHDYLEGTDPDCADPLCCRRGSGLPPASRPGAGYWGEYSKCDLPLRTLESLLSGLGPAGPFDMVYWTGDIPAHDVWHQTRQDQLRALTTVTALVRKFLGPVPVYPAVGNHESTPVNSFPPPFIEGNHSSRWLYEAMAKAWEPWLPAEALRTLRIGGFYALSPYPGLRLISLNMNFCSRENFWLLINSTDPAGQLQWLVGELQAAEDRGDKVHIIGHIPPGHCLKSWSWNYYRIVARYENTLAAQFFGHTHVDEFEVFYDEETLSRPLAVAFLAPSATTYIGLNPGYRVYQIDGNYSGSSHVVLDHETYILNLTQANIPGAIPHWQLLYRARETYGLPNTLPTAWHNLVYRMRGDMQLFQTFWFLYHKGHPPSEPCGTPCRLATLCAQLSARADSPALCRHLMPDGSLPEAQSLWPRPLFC
# Assay: Inhibition of recombinant human acid sphingomyelinase expressed in HEKfreestyle293 cells using bodipy-C12 sphingomyelin as substrate and nanomolar to low micromolar concentration of compound after 1 hr by fluorescence assay
row,Structure (SMILES),inhibition
1,CCCCCCCCOc1ccc(-c2ccc(C(=O)Nc3cccc(N4CC(=O)NS4(=O)=O)c3)cc2)cc1,Active
2,CCCCCCCCOc1ccc(-c2ccc(C(=O)Nc3cccc(P(=O)(O)O)c3)cc2)cc1,Active
3,CCCCCCCCOc1ccc(-c2ccc(C(=O)Nc3ccccc3P(=O)(O)OCOC(=O)C(C)(C)C)cc2)cc1,Active
4,CCCCCCCCOc1ccc(-c2ccc(C(=O)Nc3cccc(P(=O)(OCC)OCC)c3)cc2)cc1,Active
5,CCCCCCCCOc1ccc(-c2ccc(C(=O)Nc3ccccc3P(=O)(O)OCC)cc2)cc1,Active
6,CCCCCCCCOc1ccc(-c2ccc(C(=O)N(C)c3ccccc3C(F)(F)P(=O)(O)O)cc2)cc1,Active
7,CCCCCCCCOc1ccc(-c2ccc(C(=O)Nc3cccc(C(F)(F)P(=O)(O)OCC)c3)cc2)cc1,Active
8,CCCCCCCCOc1ccc(-c2ccc(C(=O)N(C)c3ccc(C(F)(F)P(=O)(OCC)OCC)cc3)cc2)cc1,Active
9,CCCCCCCCOc1ccc(-c2ccc(C(=O)Nc3ccccc3P(=O)(O)O)cc2)cc1,Active
10,CCCCCCCCOc1ccc(-c2ccc(C(=O)Nc3ccc(C(F)(F)P(=O)(OCC)OCC)cc3)cc2)cc1,Active
11,CCCCCCCCOc1ccc(-c2ccc(C(=O)N(C)c3ccc(C(F)(F)P(=O)(O)O)cc3)cc2)cc1,Active
12,CCCCCCCCOc1ccc(-c2ccc(C(=O)Nc3ccc(C(F)(F)CC(F)(F)P(=O)(OCC)OCC)cc3)cc2)cc1,Active
13,CCCCCCCCCCOc1ccc(-c2ccc(C(=O)Nc3ccccc3CP(=O)(O)O)cc2)cc1,Active
14,O=C(Nc1ccccc1CP(=O)(O)O)C12CC3CC(C1)CC(c1ccccc1)(C3)C2,Active
15,CCCCCCCCOc1ccc(-c2ccc(C(=O)Nc3ccccc3C(F)(F)P(=O)(O)O)cc2)cc1,Active
16,CCCCCCCCOc1ccc(-c2ccc(C(=O)Nc3cccc(CCP(=O)(O)O)c3)cc2)cc1,Active
17,O=C(Nc1ccccc1CP(=O)(O)O)c1ccc(-c2ccccc2)cc1,Active
18,CCCCCCCCOc1ccc(-c2ccc(C(=O)Nc3ccc(CCP(=O)(O)O)cc3)cc2)cc1,Active
19,O=C(Nc1ccccc1CP(=O)(O)O)c1ccc(-c2ccc(O)cc2)cc1,Active
20,CCCCCCc1ccc(-c2ccc(C(=O)Nc3ccccc3CP(=O)(O)O)cc2)cc1,Active
21,CCCCCCCOc1ccc(-c2ccc(C(=O)Nc3cccc(P(=O)(O)O)c3)cc2)cc1,Active

row,Structure (SMILES),inhibition
1,CCCCCCCCOc1ccc(-c2ccc(C(=O)Nc3cccc(CCP(=O)(OCC)OCC)c3)cc2)cc1,Active
2,CCCCCCCCOc1ccc(-c2ccc(C(=O)Nc3ccc(P(=O)(O)OCC)cc3)cc2)cc1,Active
3,CCCCCCCCCCOc1ccc(-c2ccc(C(=O)Nc3ccccc3P(=O)(OCC)OCC)cc2)cc1,Active
4,CCCCCCCCOc1ccc(-c2ccc(C(=O)Nc3ccc(P(=O)(OCC)OCC)cc3)cc2)cc1,Active
5,CCCCCCCCOc1ccc(-c2ccc(C(=O)Nc3ccc(C(F)(F)P(=O)(O)OCC)cc3)cc2)cc1,Active
6,CCCCCCCCOc1ccc(-c2ccc(C(=O)N(C)c3ccccc3C(F)(F)P(=O)(OCC)OCC)cc2)cc1,Active
7,CCCCCCCCOc1ccc(-c2ccc(C(=O)Nc3ccccc3C(F)(F)P(=O)(O)OCC)cc2)cc1,Active
8,CCCCCCCCOc1ccc(-c2ccc(C(=O)Nc3cccc(CP(=O)(OCC)OCC)c3)cc2)cc1,Active
9,CCCCCCCCOc1ccc(-c2ccc(C(=O)Nc3ccc(C(F)(F)P(=O)(O)O)cc3)cc2)cc1,Active
10,CCCCCCCCOc1ccc(-c2ccc(C(=O)Nc3ccccc3CCP(=O)(OCC)OCC)cc2)cc1,Active
11,CCCCOc1ccc(-c2ccc(C(=O)Nc3ccccc3CP(=O)(O)O)cc2)cc1,Active
12,CCCCCCCCOc1ccc(-c2ccc(C(=O)Nc3ccccc3C(F)(F)C(F)(F)P(=O)(OCC)OCC)cc2)cc1,Active
13,CCCCCCCCOc1ccc(-c2ccc(C(=O)Nc3ccccc3CP(=O)(O)O)cc2)cc1,Active
14,COc1ccc(-c2ccc(C(=O)Nc3ccccc3CP(=O)(O)O)cc2)cc1,Active
15,CCCCCCCCOc1ccc(-c2ccc(C(=O)Nc3cccc(C(F)(F)C(F)(F)P(=O)(OCC)OCC)c3)cc2)cc1,Active
16,CCCCCCCCOc1ccc(-c2ccc(C(=O)Nc3ccc(C(F)(F)C(F)(F)P(=O)(OCC)OCC)cc3)cc2)cc1,Active
17,CCCCCCc1ccc(-c2ccc(C(=O)Nc3ccccc3CP(=O)([O-])OCC[N+](C)(C)C)cc2)cc1,Active
18,O=C(Nc1ccccc1CP(=O)(O)O)c1ccc(-c2ccc(OCc3ccccc3)cc2)cc1,Active
19,CCCCCCCCOc1ccc(-c2ccc(C(=O)Nc3cccc(C(F)(F)P(=O)(OCC)OCC)c3)cc2)cc1,Active
20,CCCCCCCCOc1ccc(-c2ccc(C(=O)Nc3ccc(P(=O)(O)O)cc3)cc2)cc1,Active
21,CCCCCCCCOc1ccc(-c2ccc(C(=O)Nc3ccccc3CCP(=O)(O)O)cc2)cc1,Active

row,Structure (SMILES),inhibition
1,CCCCCCCCOc1ccc(-c2ccc(C(=O)N(C)c3cccc(C(F)(F)P(=O)(OC)OCC)c3)cc2)cc1 (stereo not drawn),Active
2,CCCCCCCCOc1ccc(-c2ccc(C(=O)N(C)c3cccc(C(F)(F)P(=O)(O)O)c3)cc2)cc1,Active
3,CCCCCCCCOc1ccc(-c2ccc(C(=O)Nc3ccccc3C(F)(F)P(=O)(OCC)OCC)cc2)cc1,Active
4,CCCCCCCCOc1ccc(-c2ccc(C(=O)Nc3cccc(CP(=O)(O)OCC)c3)cc2)cc1,Active
5,CCCCCCCCOc1ccc(-c2ccc(C(=O)Nc3cccc(C(F)(F)P(=O)(O)O)c3)cc2)cc1,Active
6,CCCCCCCCOc1ccc(-c2ccc(C(=O)Nc3ccc(C(F)(F)C(F)(F)P(=O)(O)O)cc3)cc2)cc1,Active
7,CCCCCCCCOc1ccc(-c2ccc(C(=O)Nc3ccccc3P(=O)(OCOC(=O)C(C)(C)C)OCOC(=O)C(C)(C)C)cc2)cc1,Active
8,CCCCCCCCOc1ccc(-c2ccc(C(=O)N(C)c3ccc(C(F)(F)P(=O)(OC)OCC)cc3)cc2)cc1 (stereo not drawn),Active
9,CCCCCCCCOc1ccc(-c2ccc(C(=O)Nc3ccccc3P(=O)(OCC)OCC)cc2)cc1,Active
10,CCCCCCCCOc1ccc(-c2ccc(C(=O)N(CC)c3cccc(C(F)(F)P(=O)(OCC)OCC)c3)cc2)cc1,Active
11,CCCCCCCCOc1ccc(-c2ccc(C(=O)Nc3cccc(C(F)(F)C(F)(F)P(=O)(O)O)c3)cc2)cc1,Active
12,CCCCCCCCOc1ccc(-c2ccc(C(=O)N(C)c3cccc(C(F)(F)P(=O)(OCC)OCC)c3)cc2)cc1,Active
13,CCCCCCCCOc1ccc(-c2ccc(C(=O)Nc3cccc(CP(=O)(O)O)c3)cc2)cc1,Active
14,CCCCCCCCOc1ccc(-c2ccc(C(=O)N(C)c3ccccc3C(F)(F)P(=O)(OC)OCC)cc2)cc1 (stereo not drawn),Active
15,CCCCCCCCOc1ccc(-c2ccc(C(=O)Nc3ccccc3C(F)(F)P(=O)(OC)OCC)cc2)cc1 (stereo not drawn),Active
16,CCCCCCCCOc1ccc(-c2ccc(C(=O)Nc3ccccc3C(F)(F)C(F)(F)P(=O)(O)O)cc2)cc1,Active
17,CCCCCCCCOc1ccc(-c2ccc(C(=O)Nc3ccc(C(F)(F)C(F)(F)P(=O)(O)OCC)cc3)cc2)cc1,Active
18,CCCCCCCCOc1ccc(-c2ccc(C(=O)Nc3cccc(P(=O)(O)OCC)c3)cc2)cc1,Active
19,CCCCCCCCOc1ccc(-c2ccc(C(=O)Nc3ccc(CCP(=O)(OCC)OCC)cc3)cc2)cc1,Active
20,CCCCCCCCOc1ccc(-c2ccc(C(=O)N(C)c3cccc(C(F)(F)P(=O)(O)OCC)c3)cc2)cc1,Active
21,CCCCCCCCOc1ccc(-c2ccc(C(=O)Nc3ccc(CP(=O)(O)O)cc3)cc2)cc1,Active
